Source: publication PMC9029089, “1,5-Disubstituted Acylated 2-Amino-4,5-dihydroimidazoles as a New Class of Retinoic Acid Receptor–Related Orphan Receptor (ROR) Inhibitors” (International Journal of Molecular Sciences, 2022)
Read-outs that look alike come from different tables or passages of the source.

Key:
RORγ [1] = target: T1, RORγ (Mus musculus, UniProt P51450); test: Gal4-RORγ-LBD UAS-luciferase reporter assay in TRex-CHO-K1 cells (doxycycline-stimulated); type: cell-based
T1 construct: mRORγ (Pro-261-end); expressed in transfected cells
T1 sequence (P51450 261-516 limits assumed): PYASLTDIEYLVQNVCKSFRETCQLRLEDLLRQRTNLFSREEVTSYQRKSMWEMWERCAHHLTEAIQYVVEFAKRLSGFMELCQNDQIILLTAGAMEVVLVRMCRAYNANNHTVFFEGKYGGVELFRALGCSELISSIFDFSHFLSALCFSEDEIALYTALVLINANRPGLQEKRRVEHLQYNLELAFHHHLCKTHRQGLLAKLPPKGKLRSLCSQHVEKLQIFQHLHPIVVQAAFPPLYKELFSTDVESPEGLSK

[2] = system: TRex-CHO-luciferase-RORγ cells; test: resazurin cell viability assay; type: cell-based; conditions: 5 µg/mL
Protocol: (§1) For screening FIU libraries, cells were resuspended in Ham’s F-12 assay medium containing 2% charcoal-treated FBS and no selection drugs. Ten thousand cells per well were seeded in 30 µL of assay medium in 384 white plates with clear bottom (Greiner). Cells were allowed to attach for 2 h, followed by compound treatment and stimulation with 20 ng/mL doxycycline for an additional 16–20 h. Appropriate solvent controls, negative controls with no doxycycline, and blanks with no cells were included in every plate. Prior to measuring luciferase activity, 6 µL of 0.15 mg/mL resazurin (Cayman Chemical) in PBS were added and cells were incubated for 1 h at 37 °C. Fluorescence intensity was detected at 545 nm excitation/590 nm emission using a CLARIOstar reader (BMGLabtech) as a measure of cell viability, to identify any potential cytotoxic effect of test compounds and mixtures. Following the resazurin assay, the medium was removed and 20 µL of BriteLite-Plus luciferase reagent (Perking Elmer) were added; luminescence was measured in a CLARIOstar reader using a 384 aperture spoon and a 0.1 sec measuring time interval.

RORβ = target: T2, RORβ (Rattus norvegicus, UniProt P45446); test: Gal4-RORβ-LBD UAS-luciferase reporter assay in TRex-CHO-K1 cells (doxycycline-stimulated); type: cell-based
T2 construct: rRORβ (Pro 205-end); expressed in transfected cells
T2 sequence (P45446 205-459 isoform P45446-1): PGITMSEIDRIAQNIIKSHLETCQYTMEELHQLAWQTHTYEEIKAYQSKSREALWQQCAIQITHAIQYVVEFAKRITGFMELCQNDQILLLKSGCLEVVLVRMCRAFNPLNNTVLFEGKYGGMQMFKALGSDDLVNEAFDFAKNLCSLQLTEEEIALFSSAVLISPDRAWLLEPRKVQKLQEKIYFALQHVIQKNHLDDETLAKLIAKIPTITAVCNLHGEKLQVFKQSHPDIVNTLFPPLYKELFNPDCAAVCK
From the text: To investigate the transcriptional activity of all three RORs, we generated stable cell lines expressing an UAS-driven luciferase reporter together with the corresponding Gal4-DNA binding domain fused to the ligand binding domains (LBDs) of mRORγ (Pro-261-end), hRORα (Pro-211-end), or rRORβ (Pro 205-end). The Gal4-DBD-ROR-LBD fusion proteins were subcloned in the pcDNA4/TO expression vector (Thermo Scientific) and transfected into TRex-CHO-K1 cells (Thermo Scientific) for tetracycline-controlled expression of the corresponding ROR proteins. Transfected cells were selected with hygromycin and Zeocin and individual clones for each of the Gal4-RORγ, Gal4-RORα, and Gal4-RORβ cell lines were isolated using a standard serial dilution protocol. Clones with the highest doxycycline-dependent stimulation of luciferase activity were selected for all functional experiments. All cell lines were maintained in complete Ham’s F12 medium containing 10% fetal bovine serum (FBS), 10 µg/mL blasticidine, 100 µg/mL hygromycin, and 100 µg/mL Zeocin and were used within 2 months of culture without any loss of doxycycline-dependent stimulation of luciferase activity.
as §1
(§2) Luminescence was normalized by the fluorescence intensity and the percentage of inhibition was calculated with respect to control cells stimulated with doxycycline in the presence of solvent control (0.1% DMF). All primary screens with individual compounds were performed in triplicate with a final concentration of 5 µg/mL. […] IC50 values were calculated using GraphPrism (GraphPad software).

RORα = target: T3, RORα (Homo sapiens, UniProt P35398); test: Gal4-RORα-LBD UAS-luciferase reporter assay in TRex-CHO-K1 cells (doxycycline-stimulated); type: cell-based
T3 construct: hRORα (Pro-211-end); expressed in transfected cells
T3 sequence (P35398 266-523): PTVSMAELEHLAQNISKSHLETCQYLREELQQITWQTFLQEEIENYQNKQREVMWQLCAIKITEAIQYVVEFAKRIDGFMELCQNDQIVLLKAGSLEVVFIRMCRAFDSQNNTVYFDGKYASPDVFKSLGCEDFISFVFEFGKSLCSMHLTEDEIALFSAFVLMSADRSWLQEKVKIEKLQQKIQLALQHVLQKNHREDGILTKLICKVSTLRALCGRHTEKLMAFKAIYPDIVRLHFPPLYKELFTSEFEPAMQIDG
From the text: The Gal4-DBD-ROR-LBD fusion proteins were subcloned in the pcDNA4/TO expression vector (Thermo Scientific) and transfected into TRex-CHO-K1 cells (Thermo Scientific) for tetracycline-controlled expression of the corresponding ROR proteins. Transfected cells were selected with hygromycin and Zeocin and individual clones for each of the Gal4-RORγ, Gal4-RORα, and Gal4-RORβ cell lines were isolated using a standard serial dilution protocol. Clones with the highest doxycycline-dependent stimulation of luciferase activity were selected for all functional experiments.
as §1, with “Ten thousand cells per well were seeded in 30 µL of assay medium in 384 white plates with clear bottom (Greiner).” left out, “mixtures.” for “mixtures. Following the resazurin assay, the medium was removed and 20 µL of BriteLite-Plus luciferase reagent (Perking Elmer) were added; luminescence was measured in a CLARIOstar reader using a 384 aperture spoon and a 0.1 sec measuring time interval.”
as §2

RORγ [3] = target: T1, RORγ; test: Gal4-RORγ-LBD UAS-luciferase reporter assay in TRex-CHO-K1 cells (doxycycline-stimulated); type: cell-based; conditions: for inhibition at 4 µM: T-REx-CHO-K1, library 2520, RORγ cells, read-out: % Inhibition at 4 μM (N=3); for % Inhibition at 4 μM (N=3): library 2520, RORγ cells
Th17 cells = system: Th17 cells; parameters: method as in PMID 21441909, PMID 21499262, PMID 21566134; conditions: RORγ inverse agonists; cited from earlier work
[4] = system: experimental autoimmune encephalomyelitis mouse model; parameters: method as in PMID 21441909, PMID 21499262, PMID 21566134; conditions: EAE mouse model; cited from earlier work
[5] = IC50 (μM, N=4) ROR-Gamma, library 2520
[6] = RORγ : IC50, Figure 6, confirmatory experiment, N = 4
[7] = IC50 (μM, N=4) ROR-Beta, library 2520
[8] = IC50 (μM, N=4) ROR-Alpha, library 2520
[9] = RORα : IC50, Figure 6, confirmatory experiment, N = 4
[10] = Figure 6, confirmatory experiment, N = 4, read-out: RORβ : IC50
[11] = read-out: IC50 (μM, N=4) ROR-Gamma, library 2520
[12] = read-out: IC50 (μM, N=4) ROR-Beta, library 2520
[13] = read-out: IC50 (μM, N=4) ROR-Alpha, library 2520

Row | Compound | IC50 (RORγ [1]; [5]) [µM] | IC50 (RORγ [1]; [6]) [µM] | IC50 (RORβ; [7]) [µM] | IC50 (RORα; [8]) [µM] | inhibition at 4 µM (RORγ [3]) [%] | suppression of Th17 differentiation (Th17 cells) | suppression of the onset of disease [4] | also measured
1 | O=C(Cc1ccccc1)NC1=NC[C@H](Cc2ccccc2)N1CCC12CC3CC(CC(C3)C1)C2 [1295.271] |  |  |  |  |  |  |  | % Inhibition RORγ 5 μg/ml (RORγ [1]; individual controls 1295.201-307, 5 μg/ml, triplicate): 36.0%; toxicity as determined by a resazurin assay [2]: significant toxicity
2 | CCC(C(=O)NC1=NC[C@H](Cc2ccccc2)N1CCC(C)c1ccccc1)c1ccccc1 (some centres unmarked) [2520.31] | 3.95 ± 0.3 | 3.9 ± 0.3 | 5.5 ± 0.3 | 6.82 ± 0.4 | 70.5 |  |  | IC50 (RORα; [9]): 6.8 ± 0.4 µM
3 | CCOc1ccc(C[C@H]2CN=C(NC(=O)C(CC)c3ccccc3)N2CC2CCCCC2)cc1 (some centres unmarked) [2520.39] | 4.36 ± 0.2 | 4.3 ± 0.2 | 5.34 ± 0.4 | 6.36 ± 0.3 | 73.2 |  |  | IC50 (RORβ; [10]): 5.3 ± 0.4 µM; IC50 (RORα; [9]): 6.3 ± 0.3 µM
4 | CCOc1ccc(C[C@H]2CN=C(NC(=O)Cc3ccc(OC)cc3)N2CC2CCCCC2)cc1 [2520.42] |  |  |  |  |  |  |  | IC50 (RORγ [1]; [11]): 5.17 ± 0.8 µM; IC50 (RORβ; [12]): 5.21 ± 0.3 µM; IC50 (RORα; [13]): 5.4 ± 0.4 µM; % Inhibition at 4 μM (N=3) (RORγ [3]): 96.5%
5 | CCOc1ccc(C[C@H]2CN=C(NC(=O)C(CC)c3ccccc3)N2CCC2CC3CCC2C3)cc1 (some centres unmarked) [2520.47] | 4.68 ± 0.2 | 4.6 ± 0.2 | 6.67 ± 0.4 | 7.2 ± 0.4 | 51.3 |  |  | IC50 (RORβ; [10]): 6.6 ± 0.4 µM
6 | CCOc1ccc(C[C@H]2CN=C(NC(=O)C(C)C)N2CC2CCCCC2)cc1 [2520.48] |  |  |  |  |  |  |  | IC50 (RORγ [1]; [11]): 9.27 ± 0.4 µM; IC50 (RORβ; [12]): 6.57 ± 0.5 µM; IC50 (RORα; [13]): 9.61 ± 0.5 µM; % Inhibition at 4 μM (N=3) (RORγ [3]): 69.2%
7 | CC(=O)Nc1nc(C)c(S(=O)(=O)Nc2ccc(C(O)(C(F)(F)F)C(F)(F)F)cc2)s1 [SR1001] |  |  |  |  |  | suppress Th17 differentiation | suppress Th17 differentiation and the onset of disease | 
8 | C[C@H]1O[C@@H](O[C@H]2[C@@H](O)C[C@H](O[C@H]3[C@@H](O)C[C@H](O[C@H]4CC[C@@]5(C)[C@H](CC[C@@H]6[C@@H]5C[C@@H](O)[C@]5(C)[C@@H](C7=CC(=O)OC7)CC[C@]65O)C4)O[C@@H]3C)O[C@@H]2C)C[C@H](O)[C@@H]1O [digoxin] |  |  |  |  |  | suppress Th17 differentiation | suppress Th17 differentiation and the onset of disease | 
9 | C[C@H]1[C@H](C)CC[C@]2(C(=O)O)CC[C@]3(C)C(=CC[C@@H]4[C@@]5(C)CC[C@H](O)C(C)(C)[C@@H]5CC[C@]43C)[C@H]12 [ursolic acid] |  |  |  |  |  | suppress Th17 differentiation | suppress Th17 differentiation and the onset of disease | 
